Assay results from patent US11078189B2, “Pharmaceutical compounds” (REVIRAL LIMITED, priority 2017, dated 2021).

Legend:
[1] = target: T1, RSV fusion (pCDNA3.1_A2_F in HEK 293T cells) (Human respiratory syncytial virus A, UniProt P03420); test: RSV fusion assay; format: cell-based
T1 construct: expressed in transfected cells; host or cells: HEK 293T (ECACC 12022001)
Protocol: HEK 293T ((ECACC 12022001) cells were cultured in T75 culture flasks in Dulbecco's medium (DMEM) containing 10% Foetal Bovine serum (FBS), 50 units per mL Penicillin and 50 μg/mL Streptomycin and warmed to 37° C. prior to use. The cells were passaged by first washing briefly with 5 mL Phosphate buffered saline (PBS), followed by addition of 2 mL of Trypsin Ethylenediaminetetraacetic acid (EDTA) to detach the cells. Once cells had detached from the flask, 8 mL media was then added to and the cells dispersed via pipetting against the bottom of the flask.
The cells were counted and diluted to 3×10^5 cells/ml in fresh media. Two T75 flasks were each seeded with 15.6 mL diluted cells, cells were also subcultured at a ratio of between 1:2 and 1:10, to continue the stock. The flasks were then incubated for 24 h at 37° C. and 5% CO2.
The plasmid DNA (for pFR-Luc and pcDNA3. 1_Gal4/NFKB) to be transfected into the HEK 293T cells was first prepared in serum free media (Opti-MEM, Invitrogen), containing the transfection reagent FuGENE® 6 (Promega). Serum free media was placed in a 1.5 mL eppendorf tube then the FuGENE 6 was added into the media. The tube was vortexed for 1 s before being incubated at RT for 5 min. 7.79 ng of both pFR_luc and pCDNA3.1_A2_F plasmid DNA were added to tube 1 and 7.79 ng of pCDNA3.1_GAL4-NF-κB plasmid to tube 2. The tubes were vortexed for 1 second and then incubated at room temperature for 15 min. Each transfection mixture was then added into the media of one of the T75 flasks of 293T cells. Cells were cultured for 24h at 37° C., 5% CO2 in a humidified incubator.
Compounds were diluted (in a polypropylene round-bottomed 96 well plate) 1:3 in a twelve point dilution curve to give top [final] of either 25 μM, 3 μM, 1 μM or 500 nM. A control compound was included in every assay at a top concentration of 3 μM. Transfected cells were counted and diluted to 4×10^5 cells/mL in fresh media. 50 μL of transfection population 1 were added to all wells of the 96 well flat bottom white opaque assay plates. 100 μL diluted compound (2 rows per compound), control compound (one row) and controls (DMSO (0% inhibition, four wells), 3 μM positive control (100% inhibition, four wells) and media (transfection population 1 only, four wells) were added to the appropriate wells. 50 μL of the diluted (4×10^5 cells/mL) population 2 cells when then added to all wells, except the four wells of transfection population 1 only where an extra 50 μL of this cells population was added.
The plates were then incubated for 24 h at 37° C. and 5% CO2. After this time, 100 μL was removed from all wells and 60 μL of ONE-Glo™ (Promega) reagent, pre-equilibrated to room temperature, was added. Plates were then incubated for 3 min at room temperature before luminescence was read, using the ONE-Glo protocol, on the GloMax Explorer System (Promega) multimode reader. Analysis was carried out in Dotmatics software. All raw data were background subtracted (subtraction of mean 3 μM positive control value), before IC50 calculation.

RSV A2 VR-1540 = test: RSV plaque reduction assay; format: cell-based; settings: human respiratory syncytial virus; Strain A2; n = 1; HEp-2 cells
Protocol: HEp-2 cells (ATCC, CCL23) were passaged in flasks and seeded in 96-well plates in DMEM containing antibiotics and supplemented with 10% FBS. During inoculation and subsequent incubation, cells were cultured in DMEM containing 3% FBS. 100 plaque forming unit (PFU)/well of RSV (RSV A2 VR-1540) was mixed with ten serial dilutions of compound. Subsequently, 100 μL of the virus/compound mixtures was added to confluent HEp-2 cell monolayers. The cells and virus/compound mixtures were incubated at 35° C. in a humidified 5% CO2 incubator for 1 day.
Cells were washed twice with PBS before adding 50% v/v EtOH/MeOH, and then stored at −20° C. On the day of the staining, fixative was first removed from the plates. Plates were washed 3× with PBS. A pre-titrated amount of the primary antibody was added in 60 μL PBS/2% milk powder, and plates incubated for 1 h at […]. The plates were washed 3× with PBS/0.05% Tween20 before addition of goat anti-mouse horse radish peroxidase in 60 μL PBS/2% milk powder, and incubated for 1 h at rt. Following three wash steps with PBS/0.05% Tween20, 60 μL ready-to-use TrueBlue was added and plates were incubated at rt for 10-15 min before adding MilliQ water. Plates were washed once with water, incubated for 30-60 min and after removal of water, air-dried in the dark.
Plates were scanned and analyzed using the Immunospot S6 UV analyzer, which is equipped with BioSpot analysis software for counting immunostained plaques (virospots). Plaque counts were used to calculate % infection relative to the mean of the spot count (SC) in the virus control wells for RSV. IC50/IC90 values were calculated as 50% or 90% reduction in signal, respectively, by interpolation of inhibition curves fitted with a 4-parameter nonlinear regression with a variable slope in GraphPad 5.0 (Prism).

[2] = Liver microsomal stability, rat; format: in vitro ADME; settings: pooled liver microsomes, pH 7.4; rat liver microsomes 0.5 mg/mL; 3 μM compound; read-out: Liver Microsoinal Stability t1/2, rat
Protocol: (§1) Pooled liver microsomes are purchased from a reputable commercial supplier and stored at −80° C. prior to use. Microsomes (final protein concentration 0.5 mg/mL), 0.1 M phosphate buffer pH 7.4 and test compound (final substrate concentration 3 μM; final DMSO concentration 0.25%) are pre-incubated at 37° C. prior to the addition of NADPH (final concentration 1 mM) to initiate the reaction. The final incubation volume is 50 uL. A control incubation is included for each compound tested where 0.1 M phosphate buffer pH 7.4 is added instead of NADPH (minus NADPH). Two control compounds are included with each species. All incubations are performed singularly for each test compound. Each compound is incubated for 0, 5, 15, 30 and 45 min. The control (minus NADPH) is incubated for 45 min only. The reactions are stopped by transferring 20 μL of incubate to 60 μL MeOH at the appropriate time points. The termination plates are centrifuged at 2,500 rpm for 20 min at 4° C. to precipitate the protein. Following protein precipitation, the sample supernatants are combined in cassettes of up to 4 compounds, internal standard is added and samples analysed by LC-MS/MS. From a plot of In peak area ratio (compound peak area/internal standard peak area) against time, the gradient of the line is determined. Subsequently, half-life and intrinsic clearance are calculated.

[3] = Liver microsomal stability, dog; format: in vitro ADME; settings: pooled liver microsomes, pH 7.4; dog liver microsomes 0.5 mg/mL; 3 μM compound; read-out: Liver Microsoinal Stability t1/2, dog
Protocol: as §1

T1 sequence (P03420 26-109): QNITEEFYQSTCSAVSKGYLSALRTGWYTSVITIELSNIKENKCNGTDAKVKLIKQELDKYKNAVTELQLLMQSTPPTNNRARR
T1 sequence (P03420 137-574): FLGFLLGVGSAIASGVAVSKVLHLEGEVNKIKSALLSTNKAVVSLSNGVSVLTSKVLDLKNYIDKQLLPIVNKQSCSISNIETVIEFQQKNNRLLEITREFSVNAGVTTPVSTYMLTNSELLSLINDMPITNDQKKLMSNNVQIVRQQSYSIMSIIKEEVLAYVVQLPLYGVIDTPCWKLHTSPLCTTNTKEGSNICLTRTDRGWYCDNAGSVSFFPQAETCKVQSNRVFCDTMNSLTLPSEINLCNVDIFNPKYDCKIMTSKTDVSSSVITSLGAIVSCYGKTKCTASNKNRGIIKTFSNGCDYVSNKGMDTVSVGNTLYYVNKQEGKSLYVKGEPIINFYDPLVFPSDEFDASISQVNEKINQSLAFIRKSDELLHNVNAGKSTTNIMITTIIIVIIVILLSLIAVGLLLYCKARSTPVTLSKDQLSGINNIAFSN

Structure (SMILES) | IC50 [1] | IC50 (RSV A2 VR-1540) | IC90 (RSV A2 VR-1540) | half-life at 3 μM [2] | half-life at 3 μM [3]
CS(=O)(=O)N1CCC(n2c(CN3C(=O)C4(CC4)c4ccc(F)cc43)nc3cc(Cl)ccc32)CC1 [Compound 33, 1′-{[5-Chloro-1-(1-methanesulfonylpiperidin-4-yl)-1H-1,3-benzodiazol-2-yl]methyl}-6′-fluoro-1′,2′-dihydrospiro[cyclopropane-1,3′-indole]-2′-one] | 3.3 nM | 0.49 nM | 4.4 nM | 0.247 h | 3.1 h
CCS(=O)(=O)N1CCC(n2c(CN3C(=O)C4(CC4)c4ccc(F)cc43)nc3cc(Cl)ccc32)CC1 [Compound 35, 1′-({5-Chloro-1-[1-(ethanesulfonyl)piperidin-4-yl]-1H-1,3-benzodiazol-2-yl}methyl)-6′-fluoro-1′,2′-dihydrospiro[cyclopropane-1,3′-indole]-2′-one] | 5 nM | 0.87 nM | 5.2 nM | 0.0917 h | 2.77 h
